In the assay the test system is CEM cells HIV-1 protection, formazan growth assay. Kind of assay: NCI AIDS Antiviral Assay. The note with it: for IC50: measured here: growth of uninfected CEM cells. In outline:
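CEM (human) cells, HIV-1 infected vs uninfected, 5-point dosing, formazan growth read-out. Retest threshold 50% protection.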

The source made the active and inactive calls.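 The calls were made as follows: active = compounds giving half or more protection of infected cells from virus-caused growth loss, again on retest; inactive = the rest.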 *1 amine or outer side, *2 acyl side, *3 side chain or, on linkers, in order; H or OH if unused. Where a SMILES comes first, the peptide text is derived from it. Bridges are numbered along the chain shown (N, C = ends). [ ]: non-standard residue; d: D form. The star is where a group is joined. X12 = O=C(C1CCCNN1[*:1])[*:2]; For = O=C* Bounds are passed on as bounds.

This note sets out measurements from PubChem BioAssay AID179 (DTP/NCI, 2004).

Consider `CCCCOC(=O)CCC(Nc1nc(Cl)nc(Cl)n1)C(=O)OCCCC` (configuration not stated), for which the EC50 is above 200 µM and the IC50 was above 200 µM. Consider `CCC(C)C(NC=O)C(=O)NC1C(=O)NC(CC(C)C)C(=O)NC(C(C)C)C(=O)N2NCCCC2C(=O)NC(CC(C)C)C(=O)N2NCCCC2C(=O)OC1C` (configuration not stated) (For-ITLV[X12]L[X12]; ester 2-C; configuration not given here), for which the EC50 is above 45.7 µM and the IC50 is 25.1 µM. In the same order, the values of `CCN(CC)CCN1C=CC(C)C(C(=O)O)C1C(N)=O` (configuration not stated) are above 100 µM and above 100 µM. In the same order, the values of `CN(C)c1cccc2c1C(=O)C=CC21CCc2ccc(N(C)C)c3c(N(C)C)ccc1c23` (configuration not stated) are above 200 µM and 8.71 µM.

On to `COC1C(O)C(n2ccc(=O)[nH]c2=O)OC1[C@@H](O[C@H]1OC(C(=O)NC2CCCCNC2=O)=CC(O)C1O)C(N)=O` (some centres not stated), for which the outcome was inactive.

In the case of `NCC1OC(n2cnc3c(N)ncnc32)CC1O` (configuration not stated), the EC50 is above 200 µM and the IC50 was above 200 µM.

Consider `CN(NC(=O)/C(=C/C=C/c1ccccc1)NC(=O)c1ccccc1)C1=C(Cl)C(=O)[N+](c2ccccc2)=CC1`, for which the EC50 is above 200 µM and the half-inhibitory concentration (IC50) came out at 35.5 µM. Take `COc1ccccc1NC(=O)C1=C(C)NC(C)=C(C(=O)Nc2ccccc2OC)C1c1ccc(N(C)C)cc1`: the EC50 was above 42.7 µM and the 50% inhibitory concentration (IC50) was found to be 29.5 µM. As to `O=C1OC(C(=O)O)c2ccc3c(c21)OCO3` (configuration not stated), the EC50 is above 398 µM and the IC50 is above 398 µM. As to `N=C(N)c1ncn(C2OC(CO)C(O)C2O)n1` (configuration not stated), the outcome was inactive. On to `O=C1CCC(=O)N1n1c(Cc2ccccc2)n[nH]c1=O`, for which the EC50 is above 200 µM and the half-inhibitory concentration (IC50) is above 200 µM. In the case of `CCC[CH2][Sn]([CH2]CCC)([CH2]CCC)/[C](=C/[Si](C)(C)c1ccccc1)c1ccc2c(c1)OCO2`, the EC50 was above 3.47 µM and the half-inhibitory concentration (IC50) is above 3.47 µM. Consider `NC(=O)c1cccc(OCC(O)CO)c1` (configuration not stated), for which the EC50 is above 200 µM and the IC50 is above 200 µM. For `CC(=O)OC1C(CN2CCOC2=O)OC(n2cc(C)c(=O)[nH]c2=O)C1OC(C)=O` (configuration not stated), the EC50 is above 200 µM and the IC50 was above 200 µM. As to `CC1(C)CC(/C=C2/OC(=O)c3ccccc32)=C(C#N)C(=O)O1`, the EC50 was above 33.9 µM and the half-maximal inhibitory concentration (IC50) is above 33.9 µM. Regarding `CCNc1cc2c3c(c1)CCCN3CCC2`, the EC50 was above 200 µM and the half-maximal inhibitory concentration (IC50) stood at 8.51 µM. Regarding `c1ccc2c(c1)cnc1c3ccccc3nn21`, the EC50 was above 17.4 µM and the IC50 was above 17.4 µM.

Take `COC(=O)CC[C@@H](NC(=O)C(C)NC(=O)COC1C(O)C(COC(=O)CCCCCCCCCCNC(=O)c2ccc([N+](=O)[O-])c3[nH]c4cc(Br)ccc4c(=O)c23)OC(OCc2ccccc2)C1NC(C)=O)C(N)=O` (some centres not stated): the outcome was inactive.

For the compound `CC1=[N+]([O-])C(C)(C)N(O)C1(C)C`, the EC50 is above 200 µM and the 50% inhibitory concentration (IC50) is above 200 µM. As to `COC(=O)C(CNC(=O)/C=C/c1ccc(OC(C)=O)c(OC(C)=O)c1)NC(=O)/C=C/c1ccc(OC(C)=O)c(OC(C)=O)c1` (configuration not stated), the EC50 is above 200 µM and the IC50 worked out at 36.3 µM. Consider `C=CCn1c(-c2ccc(Cl)cc2Cl)csc1=Nc1c(C)n(C)n(-c2ccccc2)c1=O`, for which the EC50 is above 200 µM and the half-inhibitory concentration (IC50) was 6.61 µM.

Regarding `O=S(=O)(O)CCS`, the EC50 was above 200 µM and the half-inhibitory concentration (IC50) was above 200 µM. For `COc1ccc(/C=C/c2sc3ccccc3[n+]2CCCCI)cc1OC`, the EC50 is above 200 µM and the half-maximal inhibitory concentration (IC50) was 7.59 µM. Regarding `COc1ccc(/C=C2\NC(=S)N(CN3CCOCC3)C2=O)cc1`, the EC50 was above 200 µM and the 50% inhibitory concentration (IC50) turned out to be 46.8 µM. As to `Cc1cn(C2C=CCCC2)c(=O)[nH]c1=O` (configuration not stated), the EC50 was above 871 µM and the concentration for half-maximal inhibition (IC50) is above 871 µM. Take `CCOC(=O)C[P+](c1cccc(OC)c1)(c1cccc(OC)c1)c1cccc(OC)c1`: the EC50 was above 200 µM and the IC50 was 46.8 µM. On to `CC(=O)Oc1cc(OC(C)=O)c2c(c1)OC(c1ccc(OC(C)=O)c(OC(C)=O)c1)CC2=O` (configuration not stated), for which the EC50 was above 57.5 µM and the 50% inhibitory concentration (IC50) was above 57.5 µM.

Regarding `C#C[C@]1(O)CCCC2=CC(=O)CC[C@@]21C`, the outcome was inactive. On to `c1ccc2c(c1)cc(C1NCCc3[nH]cnc31)c1ccccc12` (configuration not stated), for which the EC50 is above 24 µM and the IC50 was determined as 15.1 µM. As for `CCN(CC)c1c([N+](=O)[O-])c(=O)nc2ccccn12`, the EC50 is above 200 µM and the IC50 worked out at 105 µM.

With `CCOC(=O)N1CCN(C(=O)COc2cc3c(O)c4c(O)c(C)c5c(c24)C(=O)C(C)(O/C=C/C(OC)C(C)C(OC(C)=O)C(C)C(O)C(C)C(O)C(C)/C=C/C=C(\C)C(=O)N3)O5)CC1` (configuration not stated), the EC50 was above 200 µM and the IC50 was 13.5 µM. In the same order, the values of `Oc1ccccc1-c1nn2c(CCCCCCCCc3nnc4sc(-c5ccccc5O)nn34)nnc2s1` are above 200 µM and 12 µM. `CN(C)CCCCN1c2ccccc2Sc2ccc(N=[N+]=[N-])cc21`: the EC50 is above 200 µM and the IC50 turned out to be 3.24 µM. Regarding `NC(=O)CNCCS(=O)(=O)O`, the EC50 was above 200 µM and the 50% inhibitory concentration (IC50) is above 200 µM.

As for `N#Cc1c(N=C2CCCCC2)c(C(=O)Nc2ccccc2)n2c1CCC2`, the EC50 was above 100 µM and the 50% inhibitory concentration (IC50) is above 100 µM. Take `CCOc1ccc(N=Cc2cc(OC)c(OC)c(OC)c2)cc1`: the EC50 was above 60.3 µM and the IC50 was above 60.3 µM. As to `COC(=O)C(NC(=O)c1ccccc1)c1ccco1` (configuration not stated), the EC50 is above 955 µM and the concentration for half-maximal inhibition (IC50) amounted to 479 µM. `C[C@]12CCC[C@](C)(C(=O)O)[C@@H]1CC[C@@]13C[C@@H](CC[C@@H]12)[C@@H](C(=O)O)C3`: the EC50 is above 200 µM and the IC50 was above 200 µM.

For `CCCN(CCC)C(=O)Cc1c2n(c3ccccc13)CCCc1ccccc1-2`, the EC50 is above 13.8 µM and the IC50 is above 13.8 µM. In the case of `COc1cc(-c2cc(-c3cc([N+](=O)[O-])c(/C=N/NC(=O)c4ccncc4)o3)ccc2OC)ccc1C`, the EC50 is above 269 µM and the IC50 stood at 55 µM. As to `CC(NC(=O)/C(C#N)=C/c1ccc2[nH]ccc2c1)c1ccccc1` (configuration not stated), the EC50 is above 42.7 µM and the IC50 is above 42.7 µM.

As to `CC(C)(C)c1onc2c1C(=O)c1ccccc1-2`, the EC50 was above 200 µM and the IC50 is 117 µM.

For `Cc1ccc(N=c2oc3c(ccc4ccccc43)nc2Nc2ccc(C)cc2)cc1`, the EC50 is above 200 µM and the IC50 is above 200 µM.

Consider `O=C1C(c2ccccc2)=C(O)c2cccc3cccc1c23`, for which the EC50 was above 912 µM and the IC50 stood at 85.1 µM. In the same order, the values of `Cc1ccc(-c2cc(=O)c(=O)[nH][nH]2)cc1` are above 200 µM and above 200 µM. In the same order, the values of `CNc1nc(OC)c2c(n1)[n+](C)cn2C` are above 200 µM and 61.7 µM. With `O=C([CH-]C(=O)c1ccccc1)c1ccccc1.[CH3-].[CH3-].[CH3-].[Sn+4]`, the EC50 was above 35.5 µM and the IC50 was above 35.5 µM. On to `CC1=C[P+](CCc2ccccc2)(CCc2ccccc2)C=C1C`, for which the outcome was inactive.

On to `CCOC(=O)N1CCN(C(=O)Nc2cccc3ccccc23)CC1`, for which the outcome was inactive.

Consider `O=C(CNC(c1ccccc1)(c1ccccc1)c1ccccc1)NC1CCCCC1NC(=O)CNC(c1ccccc1)(c1ccccc1)c1ccccc1` (configuration not stated), for which the EC50 is above 200 µM and the concentration for half-maximal inhibition (IC50) was above 200 µM. In the case of `Cc1c(Cc2ccccc2)n(COCCCN2C(=O)c3ccccc3C2=O)c(=O)[nH]c1=O`, the EC50 was above 200 µM and the IC50 worked out at 26.3 µM. For the compound `CC(C)(C)N1C(=O)c2ccccc2C1(O)C(F)(F)F` (configuration not stated), the EC50 is above 200 µM and the concentration for half-maximal inhibition (IC50) is 135 µM. As to `COC(=O)C1Cc2c([nH]c3ccccc23)C(c2ccccc2O)N1` (configuration not stated), the result was inactive. In the case of `NCCCCNC(c1ccccc1)C(O)c1ccccc1` (configuration not stated), the outcome was inactive.

Regarding `Cc1cn(C2CC(Sc3ccccc3)C(CO)O2)c(=O)[nH]c1=O` (configuration not stated), the EC50 is above 200 µM and the half-maximal inhibitory concentration (IC50) is above 200 µM. Consider `CC(C)CCC[C@@H](C)C1CCC2[C@@H]3CCC4C[C@@H](CCC=C(c5cc(Cl)c(O)c(C(=O)O)c5)c5cc(Cl)c(O)c(C(=O)O)c5)CC[C@]4(C)C3CC[C@@]21C` (some centres not stated), for which the EC50 is 32.4 µM and the half-inhibitory concentration (IC50) is above 100 µM. For `CN(C)C(=S)Sc1nsc(SC(=S)N(C)C)n1`, in that order: above 200 µM and above 200 µM. On to `CSc1nc2c(nc(C)c(=O)n2C2OCC(OC(C)=O)C(OC(C)=O)C2OC(C)=O)c(=O)[nH]1` (configuration not stated), for which the EC50 is above 513 µM and the concentration for half-maximal inhibition (IC50) is above 513 µM.

On to `C=C1C(=O)C23C(O)C1CC[C@H]2C12CCCC(C)(C)[C@H]1[C@H](O)[C@]3(O)OC2` (some centres not stated), for which the EC50 was above 724 µM and the IC50 stood at 0.339 µM. Regarding `ClC(Cl)(Cl)C1OCOC(C(Cl)(Cl)Cl)OCO1` (configuration not stated), the EC50 is above 200 µM and the concentration for half-maximal inhibition (IC50) was above 200 µM.

Consider `[Cl-].[Cl-].[Pt+4].[S-]c1ncccn1.[S-]c1ncccn1`, for which the EC50 is above 100 µM and the IC50 was found to be 0.355 µM. On to `COc1cc(OC)c2c(=O)c(OC)c(-c3ccc4c(c3)OCO4)oc2c1OC`, for which the EC50 is above 200 µM and the IC50 is above 200 µM. As for `c1ccc(CNc2nnc(NCc3ccccc3)c3c2ncn3Cc2ccccc2)cc1`, the result was inactive.

For the compound `CCCCCCCCCCCCCCCCOCC(CCl)OP(=O)(O)OP(=O)(O)OCC1OC(n2ccc(N)nc2=O)C(O)C1O` (configuration not stated), the EC50 is above 200 µM and the 50% inhibitory concentration (IC50) stood at 170 µM. For the compound `COc1ccc(-c2nc(Sc3c([N+](=O)[O-])ncn3C)n[nH]2)cc1`, the EC50 was above 537 µM and the IC50 was 0.562 µM. Regarding `CCOC(=O)N1CCC(=O)C(CNC23CC4CC(CC(C4)C2)C3)C1` (configuration not stated), the EC50 was above 4170 µM and the IC50 turned out to be 204 µM. As to `C=C1c2nc3ccccc3n2C=C(c2ccccc2)N1c1ccccc1`, the EC50 was above 200 µM and the IC50 was found to be 3.98 µM.

Regarding `NC1=NS(=O)(=O)Nc2nc(-c3ccccc3)c(-c3ccccc3)nc21`, the EC50 was above 355 µM and the 50% inhibitory concentration (IC50) worked out at 182 µM.
